Data taken from the supplement of paper PMC10307832.

How the values were obtained:
Experiment in all cases: relative viability (nuclei count vs DMSO), 5 days (fraction); higher = more cells survive
[1] = compound: Cc1ccc(Nc2nccc(N(C)c3ccc4c(C)n(C)nc4c3)n2)cc1S(N)(=O)=O [Pazopanib] + CS(=O)(=O)N1CCN(Cc2cc3nc(-c4cccc5[nH]ncc45)nc(N4CCOCC4)c3s2)CC1 [Pictilisib] (partner 1 µM)
Method in brief: (§1)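 A single step with final 0.05% Triton X-100, 1% formaldehyde and 1 ug/ml Hoechst fixed the cells and stained nuclei 5 days after treatment. Lung cancer cell lines in 1536-well plates had been treated by pin tool the day after seeding with one drug alone or a fixed anchor-drug dose plus five library-drug doses (not always all listed) in √10 steps, and nuclei were counted on 4× images. Relative viability is the ratio of nuclei in treated wells to nuclei in vehicle wells, taken as the median of duplicate plates.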

[2] = compound: Cc1ccc(C(=O)Nc2ccc(CN3CCN(C)CC3)c(C(F)(F)F)c2)cc1C#Cc1cnc2cccnn12 [Ponatinib] + Cc1nc(NC(=O)N2CCC[C@H]2C(N)=O)sc1-c1ccnc(C(C)(C)C(F)(F)F)c1 [Alpelisib] (partner 2 µM)
Method in brief: as §1

[3] = compound: Cc1ccc(Nc2nccc(N(C)c3ccc4c(C)n(C)nc4c3)n2)cc1S(N)(=O)=O [Pazopanib] + Nc1nc2[nH]cc(CCc3ccc(C(=O)N[C@@H](CCC(=O)O)C(=O)O)cc3)c2c(=O)[nH]1 [Pemetrexed] (partner 0.2 µM)
Method in brief: as §1

[4] = compound: Cc1ccc(C(=O)Nc2ccc(CN3CCN(C)CC3)c(C(F)(F)F)c2)cc1C#Cc1cnc2cccnn12 [Ponatinib] + CC(=O)c1c(C)c2cnc(Nc3ccc(N4CCNCC4)cn3)nc2n(C2CCCC2)c1=O [Palbociclib] (partner 0.5 µM)
Method in brief: as §1

Cell Line	relative viability ([1]; first compound 0.01 µM)	relative viability ([1]; first compound 0.03162 µM)	relative viability ([1]; first compound 0.1 µM)	relative viability ([1]; first compound 0.3162 µM)	relative viability ([1]; first compound 1 µM)	relative viability ([2]; first compound 0.002 µM)	relative viability ([2]; first compound 0.006325 µM)	relative viability ([2]; first compound 0.06325 µM)	relative viability ([2]; first compound 0.2 µM)	relative viability ([3]; first compound 0.01 µM)	relative viability ([3]; first compound 0.03162 µM)	relative viability ([3]; first compound 0.1 µM)	relative viability ([3]; first compound 0.3162 µM)	relative viability ([3]; first compound 1 µM)	relative viability ([4]; first compound 0.002 µM)	relative viability ([4]; first compound 0.006325 µM)	relative viability ([4]; first compound 0.06325 µM)	relative viability ([4]; first compound 0.2 µM)
NCI-H322M	0.498	0.564	0.582	0.571	0.54	0.77	0.694	0.866	0.827	0.703	0.662	0.633	0.623	0.658	0.524	0.501	0.501	0.471
NCI-H1975	0.263	0.281	0.316	0.309	0.338	0.618	0.773	0.92	0.675	0.294	0.296	0.285	0.299	0.258	0.427	0.557	0.642	0.537
NCI-H2170	0.261	0.299	0.315	0.354	0.317	0.804	0.843	0.892	0.811	0.258	0.307	0.264	0.277	0.258	0.361	0.431	0.362	0.377
LU99A	0.241	0.374	0.356	0.35	0.35	0.519	0.453	0.62	0.466	–	0.19	0.182	0.185	0.136	0.37	0.433	0.407	0.363
NCI-H2405	0.321	0.514	0.424	0.583	0.586	0.86	0.922	0.98	0.666	0.97	1.11	1.17	1.14	1.41	0.487	0.476	0.501	0.473
NCI-H2009	0.748	0.803	0.786	0.859	0.947	1.14	1.13	1.18	1.07	1.06	1.06	0.977	0.971	0.925	0.161	0.225	0.238	0.202
HCC-15	0.703	0.773	0.718	0.857	1.06	0.82	0.906	0.988	0.805	0.215	0.226	0.223	0.209	0.231	0.675	0.752	0.798	0.672
HCC-44	0.421	0.599	0.659	0.521	0.673	0.802	0.897	0.92	0.794	0.697	0.637	0.605	0.62	0.616	0.891	0.981	0.932	0.852
COR-L23	0.649	0.771	0.805	0.962	0.881	0.747	0.775	0.844	0.778	0.177	0.182	0.207	0.204	0.203	0.271	0.287	0.272	0.229
HCC-78	0.2	0.216	0.194	0.214	0.202	0.321	0.301	0.408	0.323	–	0.934	0.899	0.839	0.927	0.422	0.528	0.418	0.471
NCI-H1299	0.791	0.79	0.82	0.952	0.693	1.04	1.09	0.987	0.935	–	–	–	–	–	–	–	–	–
ABC-1	0.635	0.839	0.82	0.799	0.86	1.18	0.987	1.08	0.874	–	–	–	–	–	0.571	0.693	0.877	0.646
NCI-H1650	0.54	0.696	0.529	0.611	0.661	–	–	–	–	0.34	0.376	0.364	0.403	0.369	0.345	0.365	0.413	0.335
ChaGo-K-1	0.543	0.876	0.632	0.613	0.759	–	–	–	–	0.267	0.256	0.268	0.257	0.252	0.887	0.964	0.936	0.856
SW 900	–	–	–	–	–	–	–	–	–	0.512	0.504	–	0.494	0.5	0.484	0.485	0.569	0.516
NCI-H727	0.356	0.244	0.497	0.393	0.483	0.599	0.533	0.72	0.468	–	–	–	–	–	0.737	0.708	0.769	0.654
NCI-H1563	0.664	0.637	0.697	0.667	0.627	0.998	0.953	1	0.789	0.707	0.805	0.691	0.876	0.81	–	–	–	–
A549	0.494	0.477	0.63	0.589	0.423	0.772	0.931	0.949	0.634	–	–	–	–	–	–	–	–	–
NCI-H2342	–	–	–	–	–	–	–	–	–	0.599	0.756	0.842	0.75	0.655	0.548	0.522	0.461	0.498
NCI-H522	–	–	–	–	–	–	–	–	–	0.842	0.83	0.956	1.09	1.02	1.05	0.982	1.18	0.814
IA-LM	0.368	0.439	0.4	0.568	0.524	0.756	0.657	0.828	0.722	–	–	–	–	–	–	–	–	–
EBC-1	0.402	0.508	0.376	0.412	0.394	0.78	0.836	0.903	0.846	–	–	–	–	–	–	–	–	–
